Among the data in PubChem BioAssay (NCI) are TGI and GI50 values, retold here.

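Where inhibition never reached the appropriate level, the endpoint shown equals the highest concentration tested. Otherwise, values were interpolated linearly from a five-concentration, 48-hour dose response in 96-well plates. Here, GI50 denotes the concentration required for 50% inhibition of growth. TGI is the concentration that stops growth completely.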 Where a SMILES comes first, the peptide text is derived from it. The star is where a group is joined. Trt = c1ccc(C(c2ccccc2)(c2ccccc2)*)cc1; Cbz = O=C(OCc1ccccc1)* Bounds are passed on as bounds.

Test systems include TK-10 renal; SF-295 CNS; SR leukemia; M14 melanoma; SNB-19 CNS; HCT-116 colon; NCI/ADR-RES ovarian; NCI-H460 lung.
Experiment in all cases: growth of human tumour cells (NCI), 48 h

In the case of `NNC(=O)C(O)C(O)C(=O)NN` (configuration not stated), the TGI with TK-10 renal, in the assay on SF-295 CNS, in the assay with SR leukemia, in the assay on M14 melanoma, in the assay on SNB-19 CNS and with HCT-116 colon was above 100 µM in each case. In the assay with NCI/ADR-RES ovarian, the TGI is above 100 µM.

Consider `COc1cccc2c1cc1c3c(cc4c(c32)OCO4)C(=O)N1`, for which the GI50 in the assay with TK-10 renal was 2.27 µM; in the assay on NCI-H460 lung it was 3.68 µM; in the assay with SF-295 CNS it was 7.27 µM; with M14 melanoma it was 12.1 µM; in the assay on SNB-19 CNS it was 6.37 µM; in the assay with HCT-116 colon it was 3.63 µM. In addition, in the assay on NCI/ADR-RES ovarian, the GI50 is 2.71 µM. Moreover, the TGI was 6.27 µM in the assay on TK-10 renal; 20.4 µM in the assay on NCI-H460 lung; 29.1 µM with SF-295 CNS; above 100 µM in the assay on M14 melanoma; above 100 µM with SNB-19 CNS; 13.2 µM in the assay with HCT-116 colon. The same compound came in with a TGI with NCI/ADR-RES ovarian of 7.46 µM.

For `CCCOC(=O)C1C2CCC(O2)C1C(=O)O` (configuration not stated), the TGI in the assay with TK-10 renal, in the assay with SF-295 CNS, in the assay on SR leukemia, with M14 melanoma, with SNB-19 CNS and in the assay with HCT-116 colon was above 100 µM throughout. For the same compound, the TGI in the assay with NCI/ADR-RES ovarian was above 100 µM.

In the case of `O=C(/C=C/c1ccccc1)CCC1C(=O)NC(=S)NC1=O`, the TGI in the assay with NCI-H460 lung, in the assay on SF-295 CNS, with M14 melanoma, with SNB-19 CNS, in the assay with HCT-116 colon and in the assay with NCI/ADR-RES ovarian was above 100 µM each time.

Consider `NS(=O)(=O)c1ccc(NC(=O)c2cccc(NC3=C(Cl)C(=O)N(Cc4ccccc4)C3=O)c2)cc1`, for which the GI50 in the assay with TK-10 renal was 15.2 µM; with NCI-H460 lung it was 10.5 µM; in the assay on SF-295 CNS it was 5.59 µM; in the assay on SR leukemia, 0.323 µM; with M14 melanoma it was 15.8 µM; in the assay with SNB-19 CNS, 27.1 µM. For the same compound, the GI50 with HCT-116 colon was 13.9 µM. Further, the TGI is 31.4 µM with TK-10 renal; 25.6 µM in the assay with NCI-H460 lung; 22.5 µM in the assay with SF-295 CNS; 1.73 µM with SR leukemia; 38.7 µM with M14 melanoma; above 100 µM with SNB-19 CNS. Also, the TGI with HCT-116 colon is 43.4 µM.

Turning to `Cc1ccc(-c2n[nH]c(=O)c3noc(-c4ccc(C)cc4)c23)cc1`, the GI50 with TK-10 renal was 2.35 µM; with NCI-H460 lung, 0.751 µM; in the assay with SR leukemia, 0.441 µM; in the assay on M14 melanoma, 0.422 µM; in the assay with SNB-19 CNS it was 2.13 µM; in the assay on HCT-116 colon it was 0.557 µM. The GI50 in the assay with NCI/ADR-RES ovarian was 0.623 µM. Besides, the TGI is 14.2 µM with TK-10 renal; 25 µM in the assay with NCI-H460 lung; above 100 µM with SR leukemia; above 100 µM with M14 melanoma; 42.8 µM with SNB-19 CNS; 75.5 µM in the assay on HCT-116 colon. Moreover, the TGI in the assay with NCI/ADR-RES ovarian was above 100 µM.

For the compound `CCCCCCCCCCSC(=N)N`, the GI50 in the assay with TK-10 renal was 1.61 µM; in the assay with NCI-H460 lung, 2.02 µM; with SF-295 CNS, 1.72 µM; in the assay with M14 melanoma, 1.89 µM; in the assay on SNB-19 CNS it was 5.17 µM; in the assay on HCT-116 colon, 2.96 µM. For the same compound, in the assay with NCI/ADR-RES ovarian, the GI50 was 4.8 µM. Also, the TGI came out at 4.09 µM with TK-10 renal; 4.68 µM in the assay on NCI-H460 lung; 3.51 µM in the assay on SF-295 CNS; 3.57 µM in the assay with M14 melanoma; 19.2 µM with SNB-19 CNS; 10.1 µM in the assay on HCT-116 colon. This compound also came in with a TGI in the assay with NCI/ADR-RES ovarian of 22.3 µM.

In the case of `O=C(c1ccc2ccccc2c1)c1c(C(F)(F)F)n([O-])c2ccc(F)cc2[n+]1=O`, the GI50 was 1.58 µM with TK-10 renal; 1.83 µM in the assay on NCI-H460 lung; 0.277 µM in the assay on SR leukemia; 1.67 µM in the assay on M14 melanoma; 1.51 µM in the assay on SNB-19 CNS; 1.5 µM in the assay on HCT-116 colon. The GI50 in the assay on NCI/ADR-RES ovarian is 2.1 µM. Also, the TGI in the assay with TK-10 renal was found to be 3.02 µM; with NCI-H460 lung, 3.68 µM; with SR leukemia it was 1.49 µM; with M14 melanoma it was 3.11 µM; in the assay on SNB-19 CNS, 3.02 µM; in the assay on HCT-116 colon it was 2.97 µM. This compound also came in with a TGI in the assay on NCI/ADR-RES ovarian of 4.57 µM.

On to `Oc1ccc(Cl)cc1/C=N\NC(=S)N/N=C/c1cc(Cl)ccc1O`, for which the GI50 in the assay with TK-10 renal was 2.68 µM; in the assay on NCI-H460 lung it was 2.58 µM; with SF-295 CNS, 3 µM; with SR leukemia, 1.22 µM; in the assay with SNB-19 CNS, 3.4 µM; in the assay on HCT-116 colon, 1.42 µM. Moreover, the GI50 with NCI/ADR-RES ovarian was 2.78 µM. The TGI in the assay with TK-10 renal was 34.5 µM; in the assay with NCI-H460 lung, 13.3 µM; in the assay with SF-295 CNS, above 100 µM; in the assay with SR leukemia it was 40.9 µM; in the assay with SNB-19 CNS, above 100 µM; in the assay with HCT-116 colon, 18.5 µM. In the assay with NCI/ADR-RES ovarian, this compound showed a TGI of 32.8 µM.

With `CNC(c1ccncc1)C(NC)c1ccncc1` (configuration not stated), the TGI in the assay on TK-10 renal, with SF-295 CNS, in the assay with SR leukemia, in the assay on M14 melanoma, in the assay on SNB-19 CNS and in the assay with HCT-116 colon was above 100 µM each time. The compound also yielded a TGI with NCI/ADR-RES ovarian above 100 µM.

Turning to `COc1ccc(NC(=O)C2C(=O)N(c3ccc(OC)cc3)C(=O)/C2=N\NC(N)=O)cc1` (configuration not stated), the TGI in the assay with TK-10 renal is 70.9 µM; in the assay with NCI-H460 lung, above 100 µM; in the assay with SF-295 CNS it was above 100 µM; with M14 melanoma, above 100 µM; in the assay on SNB-19 CNS, above 100 µM; with HCT-116 colon it was 46.8 µM.

As to `O=C(Nc1nc2ccccc2s1)c1cc(-c2ccc(F)cc2)n2nc(-c3ccccc3)cc2n1`, the GI50 with TK-10 renal is 2.45 µM; in the assay on SF-295 CNS it was 4.11 µM; in the assay on SR leukemia, 3.93 µM; in the assay on M14 melanoma, 3.13 µM; in the assay on SNB-19 CNS, 5.21 µM; in the assay on HCT-116 colon it was 2.71 µM. Further, the TGI was 5.54 µM with TK-10 renal; above 100 µM in the assay with SF-295 CNS; 12.8 µM in the assay on SR leukemia; above 100 µM in the assay on M14 melanoma; above 100 µM in the assay with SNB-19 CNS; above 100 µM in the assay with HCT-116 colon.

`COc1ccc2c(c1)/C(=N/OC(C)=O)c1c-2cnc2ccccc12`: the GI50 is 20.4 µM in the assay on TK-10 renal; 30.3 µM in the assay on NCI-H460 lung; 13.8 µM in the assay with SR leukemia; 29.6 µM in the assay with M14 melanoma; 36.6 µM in the assay with SNB-19 CNS; 21 µM in the assay on HCT-116 colon. Also, the GI50 in the assay on NCI/ADR-RES ovarian was 36.9 µM. In addition, the TGI was 54.8 µM in the assay with TK-10 renal; above 100 µM with NCI-H460 lung; 38 µM in the assay on SR leukemia; above 100 µM in the assay with M14 melanoma; above 100 µM in the assay on SNB-19 CNS; 48.1 µM in the assay on HCT-116 colon. This compound came in with a TGI in the assay with NCI/ADR-RES ovarian above 100 µM.

As for `CC(=O)[C-](C(C)=O)c1ccccc1.CC(=O)[C-](C(C)=O)c1ccccc1.CC(=O)[C-](C(C)=O)c1ccccc1.[Cl-].[Zr+4]`, the GI50 was above 100 µM in the assay on TK-10 renal; above 100 µM in the assay on NCI-H460 lung; above 100 µM in the assay on SF-295 CNS; above 100 µM in the assay on M14 melanoma; 82.9 µM in the assay with SNB-19 CNS; above 100 µM with HCT-116 colon. The TGI with TK-10 renal, with NCI-H460 lung, with SF-295 CNS, in the assay on M14 melanoma, in the assay on SNB-19 CNS and in the assay with HCT-116 colon was above 100 µM each time.

`COC(=O)C(CSC(c1ccccc1)(c1ccccc1)c1ccccc1)NC(=O)C(CC(N)=O)NC(=O)OCc1ccccc1` (stereo not drawn) (Cbz-Asn-Cys(Trt)-OMe; configuration not given here): the GI50 in the assay with TK-10 renal is 5.69 µM; in the assay on NCI-H460 lung, 4.5 µM; in the assay with SF-295 CNS it was 2.96 µM; in the assay on M14 melanoma, 1.68 µM; in the assay with SNB-19 CNS it was 5.22 µM; in the assay with HCT-116 colon, 2.79 µM. Moreover, the GI50 in the assay on NCI/ADR-RES ovarian was 4.48 µM. Also, the TGI in the assay with TK-10 renal worked out at 26.8 µM; in the assay with NCI-H460 lung it was 15.8 µM; in the assay with SF-295 CNS it was 13.9 µM; in the assay with M14 melanoma, 3.69 µM; in the assay on SNB-19 CNS, 18.9 µM; in the assay with HCT-116 colon, 10.7 µM. For the same compound, in the assay with NCI/ADR-RES ovarian, the TGI was 20.8 µM.

Turning to `CCN(CC)Cc1cc(Nc2c3ccccc3nc3cc(Cl)ccc23)ccc1O`, the GI50 in the assay on TK-10 renal was 1.64 µM; in the assay on NCI-H460 lung, 1.62 µM; in the assay on SF-295 CNS, 1.9 µM; with SR leukemia it was 3.08 µM; with M14 melanoma it was 1.76 µM; with SNB-19 CNS, 2.04 µM. The GI50 in the assay on HCT-116 colon was 0.967 µM. The TGI was 3.23 µM in the assay on TK-10 renal; 4.8 µM with NCI-H460 lung; 4.86 µM in the assay on SF-295 CNS; above 100 µM in the assay with SR leukemia; 3.18 µM in the assay with M14 melanoma; 5.27 µM with SNB-19 CNS. For the same compound, the TGI in the assay on HCT-116 colon amounted to 2.67 µM.

As for `CN=C(N)N/N=C(\C)c1ccc2c(c1)Cc1ccccc1-2`, the GI50 is 3.18 µM with TK-10 renal; 0.556 µM in the assay on NCI-H460 lung; 1.9 µM with SF-295 CNS; 1.65 µM in the assay with M14 melanoma; 3.46 µM with SNB-19 CNS; 1.43 µM with HCT-116 colon. Moreover, in the assay on NCI/ADR-RES ovarian, the GI50 was 2.02 µM. The TGI in the assay on TK-10 renal came to 14.8 µM; in the assay with NCI-H460 lung, 1.81 µM; with SF-295 CNS, 4.32 µM; in the assay with M14 melanoma it was 3.02 µM; in the assay on SNB-19 CNS it was 21.8 µM; in the assay with HCT-116 colon it was 2.74 µM. The compound further came in with a TGI in the assay on NCI/ADR-RES ovarian of 4.5 µM.
